Measured values from ChEMBL document CHEMBL1201862, “PubChem BioAssay data set” (2004).
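Protocol summary: plate cells (96-well), add compound at 5 concentrations, incubate 48 h, interpolate endpoints linearly. Abbreviation: GI50, concentration required for 50% inhibition of growth.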 The source made the active and inactive calls. Cut-off read from the data, not from the text of the source: active = GI50 up to about 1.1 µM and inactive = higher.

Key:
Assay in all cases: NCI anticancer screen, dose series, 48 h
BT-549 = system: BT-549
CAKI-1 = system: CAKI-1
EKVX = system: EKVX
HCC 2998 = system: HCC 2998
HL-60 = system: HL-60
HT-29 = system: HT-29
IGROV-1 = system: IGROV-1
LOX IMVI = system: LOX IMVI
MDA-N = system: MDA-N
MOLT-4 = system: MOLT-4
NCI-H226 = system: NCI-H226
NCI-H23 = system: NCI-H23
NCI-H460 = system: NCI-H460
SF-539 = system: SF-539
SK-MEL-5 = system: SK-MEL-5
UACC-257 = system: UACC-257
UACC-62 = system: UACC-62
Malme-3M = system: Malme-3M

Row | Compound | GI50 (BT-549) | GI50 (CAKI-1) | GI50 (EKVX) | GI50 (HCC 2998) | GI50 (HL-60) | GI50 (HT-29) | GI50 (IGROV-1) | GI50 (LOX IMVI) | GI50 (MDA-N) | GI50 (MOLT-4) | GI50 (NCI-H226) | GI50 (NCI-H23) | GI50 (NCI-H460) | GI50 (SF-539) | GI50 (SK-MEL-5) | GI50 (UACC-257) | GI50 (UACC-62) | GI50 (Malme-3M)
1 | CN(C)c1ccc(/C=C/c2cc(-c3ccccc3)[n+](C)n2-c2ccccc2)cc1 | 0.0571 µM (active) | 1.91 µM (inactive) | 0.138 µM (active) | 1.64 µM (inactive) | 0.0218 µM (active) | 0.0995 µM (active) | 0.154 µM (active) | 0.299 µM (active) | 0.114 µM (active) | 0.144 µM (active) | 0.138 µM (active) | 0.0349 µM (active) | 0.122 µM (active) | 1.49 µM (inactive) | 0.0341 µM (active) | 0.122 µM (active) | 0.481 µM (active) | 
2 | Cc1cccc2c(N)c3cccc(C(=O)NCCN4CCOCC4)c3nc12 | 1.93 µM (inactive) | 0.675 µM (active) | 0.664 µM (active) | 1.48 µM (inactive) | 0.362 µM (active) | 0.116 µM (active) | 0.224 µM (active) | 0.23 µM (active) | 0.6 µM (active) | 0.0278 µM (active) |  | 0.33 µM (active) | 0.605 µM (active) | 0.171 µM (active) | 0.853 µM (active) | 0.912 µM (active) | 0.984 µM (active) | 0.28 µM (active)
3 | Cc1ccc(OCC2=NN3C(=O)/C(=C\c4ccc([N+](=O)[O-])o4)SC3N2)cc1 (stereo not drawn) | 12.5 µM (inactive) | 14.6 µM (inactive) | 12.1 µM (inactive) |  | 1.59 µM (inactive) | 6.7 µM (inactive) | 10.5 µM (inactive) | 3.66 µM (inactive) | 4.3 µM (inactive) | 2.33 µM (inactive) | 15.4 µM (inactive) | 11.9 µM (inactive) | 18.7 µM (inactive) | 2 µM (inactive) | 8.99 µM (inactive) | 12.8 µM (inactive) |  | 2.66 µM (inactive)
4 | Cc1nc(Cl)c2sc(=S)n(-c3ccc(F)cc3)c2n1 | 2.59 µM (inactive) | 1.56 µM (inactive) | 13.2 µM (inactive) | 4.49 µM (inactive) | 7.16 µM (inactive) | 2.28 µM (inactive) | 1.74 µM (inactive) | 1.77 µM (inactive) | 1.87 µM (inactive) |  | 17.4 µM (inactive) | 1.27 µM (inactive) | 13.7 µM (inactive) |  | 3.04 µM (inactive) | 2.54 µM (inactive) | 11.8 µM (inactive) | 10.6 µM (inactive)
5 | CC#CC#C/C(=C/C=CC(=O)OC)SC | > 100 µM (inactive) | > 100 µM (inactive) | > 100 µM (inactive) | > 100 µM (inactive) | > 100 µM (inactive) | > 100 µM (inactive) | > 100 µM (inactive) | > 100 µM (inactive) | > 100 µM (inactive) | > 100 µM (inactive) | > 100 µM (inactive) |  | > 100 µM (inactive) | > 100 µM (inactive) | > 100 µM (inactive) | > 100 µM (inactive) | > 100 µM (inactive) | > 100 µM (inactive)
6 | Cc1ccc(CC(Cc2ccccc2C)C(=O)O)c(C(=O)O)c1 (stereo not drawn) | > 100 µM (inactive) | > 100 µM (inactive) | > 100 µM (inactive) | > 100 µM (inactive) | > 100 µM (inactive) | > 100 µM (inactive) | > 100 µM (inactive) | > 100 µM (inactive) | > 100 µM (inactive) | > 100 µM (inactive) | > 100 µM (inactive) | > 100 µM (inactive) | > 100 µM (inactive) | > 100 µM (inactive) | > 100 µM (inactive) | > 100 µM (inactive) |  | > 100 µM (inactive)
7 | O=C(Nc1ccccc1)N1CCN(C(=O)Nc2ccccc2)C1=S | 30.4 µM (inactive) | 41.7 µM (inactive) | > 100 µM (inactive) | > 100 µM (inactive) | 29.3 µM (inactive) | > 100 µM (inactive) | 49 µM (inactive) | > 100 µM (inactive) | > 100 µM (inactive) | > 100 µM (inactive) | 28.1 µM (inactive) | 22.3 µM (inactive) | 65 µM (inactive) | 18.5 µM (inactive) | > 100 µM (inactive) | > 100 µM (inactive) |  | > 100 µM (inactive)
8 | CON(C)C(=O)C(C)N(Cc1ccccc1)Cc1ccccc1 (stereo not drawn) | 45.6 µM (inactive) |  | 65.8 µM (inactive) | > 100 µM (inactive) | 46.9 µM (inactive) | 79.1 µM (inactive) | 88.5 µM (inactive) |  | > 100 µM (inactive) | 26.5 µM (inactive) | 64.6 µM (inactive) | 46.3 µM (inactive) | 59 µM (inactive) | > 100 µM (inactive) | 41.3 µM (inactive) | 82 µM (inactive) | 66.2 µM (inactive) | > 100 µM (inactive)
